Assay results from ChEMBL document CHEMBL3430912, “GSK Tres Cantos Anti-Kinetoplastid Screening (TCAKS) Data”.

What was measured:
[1] = system: Trypanosoma cruzi; assay: GSK_TCAKS: pIC50 Trypanosoma cruzi viability assay using beta-GAL activity. This assay was run at single shot at 5uM compound concentration per well. The biological reagents consisted of NIH-3T3 host cells and trypomastigotes parasitic cells; both cell types were set to a 3.3 * 10^5 cells/mL dilution in assay DMEM by means of a CASY cell counter device using a 60um capillary. 6 uL of the mixture were dispensed per well (about 1 * 10^3 host-cells and 1 * 10^3 parasites) with a Multidrop Combi dispenser. […] In all wells, the percentage of DMSO never exceeded 0.5%. Plates incubated for four days at 37C, 5% CO2. The substrate used for the assay fluorescence intensity (FLINT) readout was resorufin-beta-D-galactopiranoside (Sigma-Aldrich) at 5uM per well. It was diluted in PBS supplemented with the soft detergent Igepal (Fluka).; format: functional, organism-based, Mus musculus; conditions: Tulahuen, NIH3T3
[2] = system: Trypanosoma cruzi; assay: (§1) GSK_TCAKS: pIC50 Trypanosoma cruzi Imaging: Infected Cells. […] Cells were then washed once with PBS before infection. T. cruzi trypomastigotes, collected at days 5 to 8 after infection from LLC-MK2 parasite infected cultures, were allowed to swim out for 4h at 37C from a centrifuged pellet (2,500 rpm/10 min/room temperature). Trypomastigotes were then collected and counted in a CASY Cell Counter. Trypomastigotes, in supplemented DMEM, were added to H9c2 cultures in a multiplicity of infection of 1 and incubated for 18 h. Cells were washed once with PBS before incubation of the infected H9c2 monolayer with trypsin (Life-Technologies) to detach cells from the flask. Cells were counted in a CASY Cell Counter using a 150 um capillary and their density set at 5 * 10^4 cells per mL in supplemented assay DMEM. Infected H9c2 were dispensed into 384-well poly-lysine coated assay plates at 50uL per well using a Multidrop Combi dispenser. After seeding them, the plates were incubated at 37C, 5% CO2 for 72h. Cultures were then fixed and stained by addition of 50 uL of a solution containing 8% formaldehyde and 4 uM DRAQ5 DNA dye (BioStatus, UK) per well. […] Five images were collected per well for reliable statistical analysis. Automated image analysis was performed with a script developed on Acapella High Content Imaging and Analysis Software (PerkinElmer). Output: percentage of infected cells per well as a second infection marker.; format: functional, organism-based, Rattus norvegicus; conditions: H9c2, 4 h
[3] = system: Trypanosoma cruzi; assay: GSK_TCAKS: pIC50 Trypanosoma cruzi Imaging: Amastigotes/Cell. […] Cells were then washed once with PBS before infection. T. cruzi trypomastigotes, collected at days 5 to 8 after infection from LLC-MK2 parasite infected cultures, were allowed to swim out for 4h at 37C from a centrifuged pellet (2,500 rpm/10 min/room temperature). Trypomastigotes were then collected and counted in a CASY Cell Counter. Trypomastigotes, in supplemented DMEM, were added to H9c2 cultures in a multiplicity of infection of 1 and incubated for 18 h. Cells were washed once with PBS before incubation of the infected H9c2 monolayer with trypsin (Life-Technologies) to detach cells from the flask. Cells were counted in a CASY Cell Counter using a 150 um capillary and their density set at 5 * 10^4 cells per mL in supplemented assay DMEM. Infected H9c2 were dispensed into 384-well poly-lysine coated assay plates at 50uL per well using a Multidrop Combi dispenser. After seeding them, the plates were incubated at 37C, 5% CO2 for 72h. Cultures were then fixed and stained by addition of 50 uL of a solution containing 8% formaldehyde and 4 uM DRAQ5 DNA dye (BioStatus, UK) per well. […] Five images were collected per well for reliable statistical analysis. Automated image analysis was performed with a script developed on Acapella High Content Imaging and Analysis Software (PerkinElmer). Output: number of amastigotes per cell as infection level measurement.; format: functional, organism-based, Rattus norvegicus; conditions: H9c2, 4 h
[4] = system: Trypanosoma cruzi; assay: as §1, with “H2C9” for “Trypanosoma cruzi”, “H9c2 Host Cardiomyocytes.” for “Infected Cells.”, “Number” for “percentage”, “H9c2 Host Cardiomyocytes nuclei to determine drug-related cytotoxicity.” for “infected cells per well as a second infection marker.”; format: functional, organism-based, Rattus norvegicus; conditions: H9c2, 4 h
[5] = system: Leishmania donovani; assay: GSK_TCAKS: pIC50 Leishmania donovani viability assay using fluorescence intensity. Assay plates (1536-well) were prepared by adding 30nL per well of compound. For single shot assay, the final compound concentration was 5uM. […] Briefly, eGFP LdBOB axenic amastigotes were harvested, fixed and counted in a CASY cell counter (Roche-Applied Science). A final concentration of 1.5 * 10^5 cells per well were prepared in amastigote media containing 500 U/mL penicillin/streptomycin (Invitrogen) and 6uL was dispensed to each experimental well using a Multidrop Combi dispenser (Thermo Scientific). 6uL of assay media was dispensed to control columns used as reference for 100% compound response. Following incubation for 72 h at 37C, 5% CO2, 2 uL of resazurin was added to each well at a final concentration of 0.5 mM in phosphate buffered saline (PBS) with IGEPAL (Sigma-Aldrich), 0.05% (v/v).; format: functional, organism-based
[6] = system: Leishmania donovani; assay: (§2) GSK_TCAKS: pIC50 Leishmania donovani Imaging: Infected Macrophages. Assay plates (384-well) were prepared by adding 250nL of compound to each well. For single shot assay, the final compound concentration was 5 uM. […] Automated image analysis was performed with a script developed on Acapella High Content Imaging and Analysis Software (PerkinElmer). Output: Percent of infected macrophage cells were reported for each well.; format: functional, organism-based, Homo sapiens; conditions: THP-1
[7] = system: Leishmania donovani; assay: as §2, with “Amastigotes/Macrophages.” for “Infected Macrophages.”, “Average number” for “Percent”, “amastigotes per” for “infected”, “cell” for “cells”; format: functional, organism-based, Homo sapiens; conditions: THP-1
[8] = system: Leishmania donovani; assay: as §2, with “THP-1 Host” for “Infected”, “THP-1 cell count” for “Percent of infected macrophage cells”; format: functional, organism-based, Homo sapiens
[9] = system: Trypanosoma brucei brucei; assay: GSK_TCAKS: pIC50 Trypanosoma brucei viability assay using fluorescence intensity. Assay plates (1536-well) were prepared by dispensing 25nL of compound solution per well using an Echo acoustic dispenser (Labcyte).; format: functional, organism-based; conditions: Lister 427, 2 h
[10] = system: Trypanosoma brucei brucei; assay: GSK_TCAKS: pIC50 Trypanosoma brucei viability assay using luminiscence. Assay plates (1536-well) were prepared. T. brucei cultures were harvested and counted in a CASY cell counter. A parasite suspension was prepared at a final concentration of 5 * 10^4 cells/mL in complete HMI9 medium and 6uL was dispensed to all wells containing compounds using a Multidrop Combi dispenser. 6uL of HMI9 media with 0.4% DMSO were dispensed to control columns. Plates were incubated for 24 h at 37C, 5% CO2 then tempered for 10 min at room temperature. ATP content was quantified by adding 4 uL of CellTiter-Glo Reagent (Promega) according to the manufacturer's instructions. Luminescence was measured using a ViewLux.; format: functional, organism-based; conditions: Lister 427, CASY
[11] = GSK_TCAKS: pIC50 HepG2 human cell line viability assay using luminiscence. […] Seeding density was checked to ensure that new mono-layers were not more than 50% confluent at the time of harvesting. Cell suspension was added to 500 mL of the same medium at a final density of 1.2 * 10^5 cells/mL. This cell suspension was dispensed (25 uL, 3000 cells per well) into 384-well clear-bottom plates using a Multidrop Combi dispenser. Prior to addition of the cell suspension, the screening compounds (250 nL) were pre-dispensed into the plates with an Echo liquid handler. Plates were incubated for 48 h at 37C, 5% CO2. After incubation, plates equilibrated at room temperature for 30 min before proceeding to develop the luminescent signal. The signal developer, CellTiter-Glo Reagent, was allowed to equilibrate at room temperature for 30 min and added to the plates (25uL per well) using a Multidrop Combi dispenser. Plates were left for 10 min at room temperature for stabilization and then read using a ViewLux.; format: toxicity, cell-based
[12] = system: NIH3T3; assay: GSK_TCAKS: pIC50 NIH 3T3 cell line viability assay using luminiscence. Tissue culture surface treated assay plates (1536-well) were used. […] The 100% cells survival control was determined exposing the host-cells to a 0.5% DMSO concentration, whereas the 100% toxicity control was achieved by seeding the cells in presence of Amphotericin B at 50uM. Plates were incubated for four days at 37C, 5% CO2. The assay readout was developed by addition of 5uL of CellTiter-Glo Reagent following the manufacturer's instructions. Luminiscence was measured using a ViewLux.; format: functional, cell-based; conditions: Mus musculus, NIH3T3, 96 h
[13] = biological target: Sterol 14-alpha demethylase (Trypanosoma cruzi (strain CL Brener), UniProt Q7Z1V1); assay: GSK_TCAKS: pIC50 CYP51 from Trypanosoma cruzi.; format: functional
Sterol 14-alpha demethylase, sequence (Q7Z1V1 whole entry): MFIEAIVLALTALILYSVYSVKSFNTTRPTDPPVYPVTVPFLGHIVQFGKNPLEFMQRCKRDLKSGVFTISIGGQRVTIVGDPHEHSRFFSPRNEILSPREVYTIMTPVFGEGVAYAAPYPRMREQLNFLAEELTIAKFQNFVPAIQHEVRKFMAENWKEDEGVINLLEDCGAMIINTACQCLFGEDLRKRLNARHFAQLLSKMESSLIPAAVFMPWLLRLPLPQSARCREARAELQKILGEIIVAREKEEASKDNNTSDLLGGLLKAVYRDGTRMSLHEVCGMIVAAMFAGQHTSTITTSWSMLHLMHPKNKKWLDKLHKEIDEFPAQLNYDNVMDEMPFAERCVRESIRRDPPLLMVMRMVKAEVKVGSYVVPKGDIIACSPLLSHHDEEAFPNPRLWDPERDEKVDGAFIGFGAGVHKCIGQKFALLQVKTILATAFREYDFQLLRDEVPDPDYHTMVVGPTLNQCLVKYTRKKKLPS

Row | Structure (SMILES) | IC50 [1] [µM] | IC50 [2] [µM] | IC50 [3] [µM] | IC50 [4] [µM] | IC50 [5] [µM] | IC50 [6] [µM] | IC50 [7] [µM] | IC50 [8] [µM] | IC50 [9] [µM] | IC50 [10] [µM] | IC50 at 48 h [11] [µM] | IC50 [12] [µM] | IC50 [13] [µM]
1 | N#Cc1cc([N+](=O)[O-])ccc1NC1CCCCCC1 | 2.51 | 2 | 1.26 | > 50.1 | > 50.1 | > 50.1 | > 50.1 | > 50.1 | 2.51 | 3.16 | > 100 | > 50.1 | > 100
2 | O=C(CSc1ccc(F)cc1)N[C@@H](Cc1c[nH]cn1)C(=O)NCCc1ccccc1 | 0.447 | 0.501 | 0.501 | > 50.1 | > 50.1 | > 50.1 | > 50.1 | > 50.1 | > 39.8 | > 39.8 | > 100 | 12.6 | 0.0794
3 | O=C(Nc1cccc(F)c1)N1CCC(Oc2cccc(-c3cccnc3)c2)CC1 | 0.631 | 0.631 | 0.501 | 25.1 | 0.501 | > 50.1 | 0.794 | 20 | 25.1 | > 39.8 | > 100 | 39.8 | 0.158
4 | COc1ccc(S(=O)(=O)Nc2ccccc2OC)cc1NC(=O)CCCc1c[nH]c2ccccc12 | 1.58 | 1.26 | 1 | > 50.1 | 25.1 | > 50.1 | > 50.1 | > 50.1 | 12.6 | 31.6 | > 100 | > 50.1 | > 100
5 | O=C(Nc1ccc(Br)c(Cl)c1)Nc1ccc2c(c1)OCO2 | 2.51 | 5.01 | 2 | > 50.1 | > 50.1 | > 50.1 | > 50.1 | > 50.1 | 7.94 | 12.6 | > 100 | 15.8 | > 100
6 | O=C(Nc1cccc(Cl)c1)N1CCCCC1c1cccnc1 (centres undefined) | 0.178 | 0.2 | 0.2 | > 50.1 | 3.16 | > 50.1 | > 50.1 | > 50.1 | > 39.8 | > 39.8 | > 100 | 31.6 | 0.02
7 | COc1ccc(C)cc1-c1csc(NC(=O)C(C)n2ccnc2)n1 (centres undefined) | 0.0708 | 0.1 | 0.1 | > 50.1 | 3.16 | > 50.1 | > 50.1 | > 50.1 | 25.1 | > 39.8 | > 100 | 50.1 | 0.0398
8 | CC(C)(C)C(Cn1ccnc1)NC(=O)c1ccc2nc(C3CC3)oc2c1 (centres undefined) | 0.1 | 0.1 | 0.0794 | > 50.1 | 20 | > 50.1 | > 50.1 | 15.8 | > 39.8 | > 39.8 | > 100 | > 50.1 | 0.1
